From US20080234464A1, “Compound Having Amino Acid Residue or Peptide Residue and Process for Producing the Same” (priority 2005, published 2008) come the findings set out here.

Type in all cases: cell-based
Test [1] has as its system T24 (human urinary bladder carcinoma) cells. Nature of the test: Nucleic acid transfection experiment (siRNA level), FITC-labeled siRNA, flow cytometer. Conditions: compounds (1-A)/(1-B): 0.6 mM), 0.5 μg FITC-labeled siRNA, 2 hours. On the procedure:
(§1) In order to attain 50 to 60% confluence at the time of siRNA transfection, PC3 ([…]) cells, UMUC3 (human bladder carcinoma) cells and T24 (human urinary bladder carcinoma) cells were separately seeded in a 6-well plate on the day before the transfection and cultured at 37° C. in a 5% CO2 incubator.
(§2) A 100-μl quantity of Opti-MEM was added to each of several 1.5-ml tubes, and two samples each of 1, 3 and 10 μl of PBS solution containing the carriers for nucleic acid transfection of Reference Example 3 in one of the two samples and Reference Example 8 in the other sample (each carrier for nucleic acid transfection content had been adjusted so that compound (1L-A) was at 0.067 mM) were separately added to each tube and then left to stand at room temperature for about 10 minutes. Further, 0.5 μg of FITC-labeled siRNA (fluorescent labeled siRNA ((sense)Fluo-[…]/(antisense)[…]: product of Proligo) was added to each tube and then left to stand for 15 minutes, forming a complex of siRNA and the carrier for gene transfection.
(§3) Separately, 50 μl of Opti-MEM was added to each of several 1.5-ml tubes, and two samples each of 1, 3 and 10 μl of PBS solution containing 0.6 mM compound (1-A) in one of the two samples and 0.6 mM compound (1-B) in the other sample were separately added to each tube, mixed by tapping, and then left to stand at room temperature for 5 minutes. Further, 0.5 μg of FITC-labeled siRNA (same as above) was added to each tube and then left to stand for 30 minutes, forming a complex of the siRNA and carrier for gene transfection.
(§4) After a while, the prepared solutions containing the siRNA and carrier for gene transfection were separately added to the wells in which the cells were present at 50 to 60% confluence. The plates were slowly pitched and rolled, and culture was then performed at 37° C. under a condition of 5% CO2 for 2 hours. After the culture was completed, FITC-positive cells were counted by a flow cytometer to calculate the siRNA transfection efficiency (%) in cells. Further, for comparison with conventional carriers for nucleic acid transfection (Lipofectamine 2000, TransIt-TKO, Metafectene, and oligofectamine), siRNA transfection efficiency (%) in cells was calculated in the same manner as above using the protocol recommended by the respective manufacture and corresponding to a transfection nucleic acid amount of 0.5 μg.

Test [2] concerns UMUC3 (human bladder carcinoma) cells. The test is described as above. Particulars: compounds (1-A)/(1-B): 0.6 mM), 0.5 μg FITC-labeled siRNA, 2 hours. The procedure: as §1, §2, §3, §4
Test [3] deals with PC3 (human lung adenocarcinoma) cells. The test is described as above. Particulars: compounds (1-A)/(1-B): 0.6 mM), 0.5 μg FITC-labeled siRNA, 2 hours. The procedure: as §1, §2, §3, §4
Test [4] concerns T24 (human urinary bladder carcinoma) cells. Nature of the test: Nucleic acid transfection experiment (oligo DNA level), FITC-labeled single-strand DNA, FACS. Particulars: 0.3 μg FITC-labeled single-strand DNA (20 mer), 4 hours at 37° C. On the procedure:
(§5) PC3 ([…]) cells, UMUC3 (human bladder carcinoma) cells, T24 (human urinary bladder carcinoma) cells and NIH-3T3 (mouse embryonic fibroblast) cells were separately precultured in a 12-well plate, either in a 10% FBS-containing RPMI medium (PC3 cells, NIH-3T3 cells, and T24 cells) or in a 10% FBS-containing DMEM medium (UMUC cells), to attain a 60 to 70% confluent state.
(§6) A 1 μl quantity of each of the compounds shown in Table 1 [solutions containing compound (1-A) or (1-B) at 0.37, 0.13 and 0.04 mM] was added to each of a corresponding number of containers each holding 50 μl of non-serum medium, mixed by tapping, and incubated at room temperature for 5 minutes. Subsequently, 0.3 μg of FITC-labeled single-strand DNA (20 mer) (FITC-[…]: product of Proligo) was added to each of the above-prepared media containing a carrier for nucleic acid transfection, mixed by tapping, and incubated at 37° C. for 30 minutes (mixed by tapping every 10 minutes). The obtained mixtures were separately added to the above wells in which the cell culture had been completed, leveled by lightly tapping, and then incubated at 37° C. for 4 hours. The cells were collected, and FITC-positive cells were counted by FACS to calculate DNA transfection efficiency (%) in cells. Further, for the comparison with conventional carriers for nucleic acid transfection (Lipofectamine 2000, TransIt-TKO, and Fugene 6), siRNA transfection efficiency (%) in PC3 cells was calculated in the same manner as above using the protocol recommended by the respective manufacturer and corresponding to a transfection nucleic acid amount of 0.3 μg.

The subject of test [5] is UMUC3 (human bladder carcinoma) cells. The description is as above. Conditions: 0.3 μg FITC-labeled single-strand DNA (20 mer), 4 hours at 37° C. The procedure:
as §5, §6

In test [6] the test system is NIH-3T3 (mouse embryonic fibroblast) cells. The test is described as above. Particulars: 0.3 μg FITC-labeled single-strand DNA (20 mer), 4 hours at 37° C. The procedure:
as §5, §6

Test [7] concerns PC3 (human lung adenocarcinoma) cells. The description is as above. Particulars: for DNA transfection efficiency in cells (%): PC3, 0.3 μg FITC-labeled single-strand DNA (20 mer), 4 hours at 37° C. The procedure: as §5, §6
[8] abbreviates: amount 1 μl of carrier solution (Reference Examples: 0.067 mM as compound (1L-A).
[9] abbreviates: amount 3 μl of carrier solution (Reference Examples: 0.067 mM as compound (1L-A).
Where [10] appears, read: amount 10 μl of carrier solution (Reference Examples: 0.067 mM as compound (1L-A).
The mark [11] stands for this setting: 1 μl of 0.04 mM compound solution.
Where [12] appears, read: 1 μl of 0.13 mM compound solution.
The mark [13] stands for this setting: 1 μl of 0.37 mM compound solution.

As for `N=C(N)NCCCC(N)C(=O)CC(CNC(=N)N)C(=O)NC(CCCNC(=N)N)C(=O)NCCCCC(N)C(=O)NC(CCCCNC(=O)C(CCCNC(=N)N)NC(=O)C(CNC(=N)N)CC(=O)C(N)CCCNC(=N)N)C(=O)NC(CCCCNC(=O)C(CCCNC(=N)N)NC(=O)C(CNC(=N)N)CC(=O)C(N)CCCNC(=N)N)C(=O)NC(CCCCNC(=O)C(CCCNC(=N)N)NC(=O)C(CNC(=N)N)CC(=O)C(N)CCCNC(=N)N)C(=O)NC(CCCCNC(=O)C(CCCNC(=N)N)NC(=O)C(CNC(=N)N)CC(=O)C(N)CCCNC(=N)N)C(=O)NCCCCCC(=O)NCCCCCC(N)=O` (stereo not shown) [(1-B)], the “siRNA transfection efficiency in cells (%)” value in test [1] (setting [8]) turned out to be 11.6%; in test [1] (setting [9]) it was 19.2%; in test [1] (setting [10]) it was 60.7%; in test [2] (setting [8]), 5.3%; in test [2] (setting [9]), 4.4%; in test [2] (setting [10]) it was 7.0%. Also, the “siRNA transfection efficiency in cells (%)” value in test [3] (setting [8]) is on record as 3.5%; in test [3] (setting [9]) it was 10.1%; in test [3] (setting [10]), 42.0%. Besides, the “DNA transfection efficiency in cells (%)” value in test [4] (setting [11]) amounted to 13.4%; in test [4] (setting [12]), 26.0%; in test [4] (setting [13]), 31.4%; in test [5] (setting [11]), 61.7%; in test [5] (setting [12]), 77.2%; in test [5] (setting [13]), 61.5%. Also, the “DNA transfection efficiency in cells (%)” value came out at 84.0% in test [6] (setting [11]); 93.2% in test [6] (setting [12]); 87.0% in test [6] (setting [13]); 65.0% in test [7] (setting [11]); 76.1% in test [7] (setting [12]); 83.8% in test [7] (setting [13]). For the same compound, the “suitability for introducing nucleic acids into cells (conclusion from Table 1)” value in test [7] (conclusion over PC3, UMUC3, T24 and NIH-3T3 cells) is given as “excellently suitable for introducing nucleic acids into cells”.
